Values of other authors as cited in patent US20240252489A1, “REPEATED ADMINISTRATION OF DIHYDROERGOTAMINE FOR TREATMENT OF FREQUENT MIGRAINE HEADACHES” (Woodward Specialty LLC, priority 2020, published 2024).

System: patients with frequent migraine headaches
Settings: 15 min after administration; reported in the literature

For `N[C@@H]1c2cccnc2[C@H](OC(=O)N2CCC(n3c(=O)[nH]c4ncccc43)CC2)CC[C@H]1c1cccc(F)c1F` [Rimegepant], the “subjects having pain relief” value is given as 8%.
